Legend:
foxtail, giant [1] = experiment: Test A preemergence; format: in vivo, Setaria faberii; conditions: preemergence
Summary of the method: (§1)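 Injury readout: eye-scored versus untreated controls, 0 to 100. Exposure period: ~10 days, greenhouse. Application: soil-directed spray over sown seed (pre) or spray on seedlings 2–10 cm tall with one or two leaves (post), compound carried in non-phytotoxic solvent including surfactant.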

pigweed [2] = experiment: Test A preemergence; format: in vivo, Amaranthus retroflexus; conditions: preemergence
Summary of the method: as §1

corn = experiment: Test A postemergence; format: in vivo, Zea mays
Summary of the method: as §1

blackgrass [3] = experiment: Test C preemergence; format: in vivo, Alopecurus myosuroides; conditions: for Plant response rating (scale of 0 to 100), Blackgrass: Preemergence, 250 g ai/ha
Summary of the method: (§2)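 In this greenhouse assay, seeded soil (loam plus sand) or emerged seedlings in peat-vermiculite medium were treated with formulated compound. Roughly two weeks later (13–15 days), each species was scored visually relative to controls, from 0 for no effect to 100 for complete control.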

galium = experiment: Test C preemergence; format: in vivo, Galium aparine; conditions: for Plant response rating (scale of 0 to 100), Galium: Preemergence, 250 g ai/ha
Summary of the method: as §2

johnsongrass = experiment: Test C preemergence; format: in vivo, Sorghum halepense; conditions: for Plant response rating (scale of 0 to 100), Johnsongrass: Preemergence, 250 g ai/ha
Summary of the method: as §2

pigweed [4] = experiment: Test C preemergence; format: in vivo, Amaranthus retroflexus; conditions: for Plant response rating (scale of 0 to 100), Pigweed: Preemergence, 250 g ai/ha
Summary of the method: as §2

blackgrass [5] = experiment: Test C postemergence; format: in vivo, Alopecurus myosuroides; conditions: for Plant response rating (scale of 0 to 100 where 0 is no effect and 100 is complete control), Blackgrass: Postemergence, 31 g ai/ha, visually evaluated after 13 to 15 days; for Blackgrass plant response rating / Plant response rating, Blackgrass: postemergence; for Blackgrass plant response rating: 62 g ai/ha, scale 0 to 100
Summary of the method: as §2

wheat = experiment: Test C postemergence; format: in vivo, Triticum aestivum; conditions: for Plant response rating (scale of 0 to 100 where 0 is no effect and 100 is complete control), Wheat: Postemergence, 31 g ai/ha, visually evaluated after 13 to 15 days; for Wheat plant response rating / Plant response rating, Wheat: postemergence; for Wheat plant response rating: 62 g ai/ha, scale 0 to 100
Summary of the method: as §2

foxtail, giant [6] = experiment: Test C postemergence; format: in vivo, Setaria faberii; conditions: for Plant response rating (scale of 0 to 100 where 0 is no effect and 100 is complete control), Foxtail, Giant: Postemergence, 31 g ai/ha, visually evaluated after 13 to 15 days; for Foxtail, Giant plant response rating / Plant response rating, Foxtail, Giant: postemergence; for Foxtail, Giant plant response rating: 62 g ai/ha, scale 0 to 100
Summary of the method: as §2

pigweed [7] = experiment: Test C postemergence; format: in vivo, Amaranthus retroflexus; conditions: for Plant response rating (scale of 0 to 100 where 0 is no effect and 100 is complete control), Pigweed: Postemergence, 31 g ai/ha, visually evaluated after 13 to 15 days; for Pigweed plant response rating / Plant response rating, Pigweed: postemergence; for Pigweed plant response rating: 62 g ai/ha, scale 0 to 100
Summary of the method: as §2

ragweed = experiment: Test C postemergence; format: in vivo, Ambrosia elation; conditions: for Plant response rating (scale of 0 to 100 where 0 is no effect and 100 is complete control), Ragweed: Postemergence, 31 g ai/ha, visually evaluated after 13 to 15 days; for Ragweed plant response rating / Plant response rating, Ragweed: postemergence; for Ragweed plant response rating: 62 g ai/ha, scale 0 to 100
Summary of the method: as §2

soybean = experiment: Test C postemergence; format: in vivo, Glycine max; conditions: for Plant response rating (scale of 0 to 100 where 0 is no effect and 100 is complete control), Soybean: Postemergence, 31 g ai/ha, visually evaluated after 13 to 15 days; for Soybean plant response rating / Plant response rating, Soybean: postemergence; for Soybean plant response rating: 62 g ai/ha, scale 0 to 100
Summary of the method: as §2

barnyardgrass = experiment: Test C postemergence; format: in vivo, Echinochloa crus-galli; conditions: for Plant response rating (scale of 0 to 100 where 0 is no effect and 100 is complete control), Barnyardgrass: Postemergence, 31 g ai/ha, visually evaluated after 13 to 15 days; for Barnyardgrass plant response rating / Plant response rating, Barnyardgrass: postemergence; for Barnyardgrass plant response rating: 62 g ai/ha, scale 0 to 100
Summary of the method: as §2

[8] = 125 g ai/ha, visual injury, 0 to 100 scale, approx. 10 days
[9] = 500 g ai/ha, visual injury after approx. 10 days, 0 to 100 scale (0 no effect, 100 complete control)
[10] = Postemergence, 500 g ai/ha, 0 to 100 scale (0 no effect, 100 complete control)
[11] = postemergence, 125 g ai/ha, about 10 days, visual rating on 0 to 100 scale (0 no effect, 100 complete control)
[12] = preemergence, 31 g ai/ha, visual rating, scale 0 to 100 (0 no effect, 100 complete control), 13 to 15 days
[13] = preemergence, 62 g ai/ha, scale 0 to 100 (0 no effect, 100 complete control), 13 to 15 days
[14] = preemergence, 125 g ai/ha, scale 0 to 100, 0 is no effect, 100 is complete control
[15] = 250 g ai/ha, scale 0 to 100 (0 no effect, 100 complete control)
[16] = 125 g ai/ha, scale 0 to 100, 0 no effect, 100 complete control
[17] = preemergence, 125 g ai/ha, 13 to 15 days, scale 0 to 100, 0 = no effect, 100 = complete control

CCc1cc(C(=O)NOC(C)C)nn1Cc1ccnc(OC(F)F)c1 [Compound 126]
Foxtail, Giant plant response rating (foxtail, giant [1]; [8]): 100
Foxtail, Giant plant response rating (foxtail, giant [1]; [9]): 100
Pigweed plant response rating (pigweed [2]; [8]): 100
Pigweed plant response rating (pigweed [2]; [9]): 100
Corn plant response rating (corn; [10]): 90
Corn plant response rating (corn; [11]): 90
Plant response rating (scale of 0 to 100), Blackgrass (blackgrass [3]): 90
Blackgrass plant response rating (blackgrass [3]; [12]): 55
Blackgrass plant response rating (blackgrass [3]; [13]): 60
Blackgrass plant response rating (blackgrass [3]; [14]): 90
Plant response rating (scale of 0 to 100), Galium (galium): 100
Galium plant response rating (galium; [12]): 85
Galium plant response rating (galium; [13]): 98
Galium plant response rating (galium; [14]): 100
Plant response rating (scale of 0 to 100), Johnsongrass (johnsongrass): 98
Johnsongrass plant response rating (johnsongrass; [12]): 40
Johnsongrass plant response rating (johnsongrass; [13]): 85
Johnsongrass plant response rating (johnsongrass; [14]): 95
Plant response rating (scale of 0 to 100), Pigweed (pigweed [4]): 100
Pigweed plant response rating (pigweed [4]; [12]): 100
Pigweed plant response rating (pigweed [4]; [13]): 85
Pigweed plant response rating (pigweed [4]; [14]): 100
Plant response rating (scale of 0 to 100 where 0 is no effect and 100 is complete control), Blackgrass (blackgrass [5]): 5
Blackgrass plant response rating (blackgrass [5]): 5
Plant response rating, Blackgrass (blackgrass [5]; [15]): 25
Plant response rating, Blackgrass (blackgrass [5]; [16]): 20
Plant response rating (scale of 0 to 100 where 0 is no effect and 100 is complete control), Wheat (wheat): 5
Wheat plant response rating (wheat): 5
Plant response rating, Wheat (wheat; [15]): 5
Plant response rating, Wheat (wheat; [16]): 5
Plant response rating (scale of 0 to 100 where 0 is no effect and 100 is complete control), Foxtail, Giant (foxtail, giant [6]): 10
Foxtail, Giant plant response rating (foxtail, giant [6]): 20
Plant response rating, Foxtail, Giant (foxtail, giant [6]; [15]): 60
Plant response rating, Foxtail, Giant (foxtail, giant [6]; [16]): 20
Plant response rating (scale of 0 to 100 where 0 is no effect and 100 is complete control), Pigweed (pigweed [7]): 25
Pigweed plant response rating (pigweed [7]): 50
Plant response rating, Pigweed (pigweed [7]; [15]): 65
Plant response rating, Pigweed (pigweed [7]; [16]): 40
Plant response rating (scale of 0 to 100 where 0 is no effect and 100 is complete control), Ragweed (ragweed): 30
Ragweed plant response rating (ragweed): 35
Plant response rating, Ragweed (ragweed; [15]): 80
Plant response rating, Ragweed (ragweed; [16]): 55
Plant response rating (scale of 0 to 100 where 0 is no effect and 100 is complete control), Soybean (soybean): 40
Soybean plant response rating (soybean): 45
Plant response rating, Soybean (soybean; [15]): 65
Plant response rating, Soybean (soybean; [16]): 55
Plant response rating (scale of 0 to 100 where 0 is no effect and 100 is complete control), Barnyardgrass (barnyardgrass): 5
Barnyardgrass plant response rating (barnyardgrass): 5
Plant response rating, Barnyardgrass (barnyardgrass; [15]): 40
Plant response rating, Barnyardgrass (barnyardgrass; [16]): 10

CCCc1cc(C(=O)NCC(F)(F)F)nn1Cc1ccnc(OC(F)F)c1 [Compound 127]
Foxtail, Giant plant response rating (foxtail, giant [1]; [8]): 90
Foxtail, Giant plant response rating (foxtail, giant [1]; [9]): 100
Pigweed plant response rating (pigweed [2]; [8]): 90
Pigweed plant response rating (pigweed [2]; [9]): 100
Corn plant response rating (corn; [10]): 90
Corn plant response rating (corn; [11]): 90
Plant response rating (scale of 0 to 100), Blackgrass (blackgrass [3]): 85
Blackgrass plant response rating (blackgrass [3]; [12]): 20
Blackgrass plant response rating (blackgrass [3]; [13]): 60
Plant response rating, Blackgrass (blackgrass [3]; [17]): 60
Plant response rating (scale of 0 to 100), Galium (galium): 100
Galium plant response rating (galium; [12]): 80
Galium plant response rating (galium; [13]): 100
Plant response rating, Galium (galium; [17]): 100
Plant response rating (scale of 0 to 100), Johnsongrass (johnsongrass): 90
Johnsongrass plant response rating (johnsongrass; [12]): 55
Johnsongrass plant response rating (johnsongrass; [13]): 55
Plant response rating, Johnsongrass (johnsongrass; [17]): 80
Plant response rating (scale of 0 to 100), Pigweed (pigweed [4]): 100
Pigweed plant response rating (pigweed [4]; [12]): 100
Pigweed plant response rating (pigweed [4]; [13]): 100
Plant response rating, Pigweed (pigweed [4]; [17]): 100
Plant response rating (scale of 0 to 100 where 0 is no effect and 100 is complete control), Blackgrass (blackgrass [5]): 20
Blackgrass plant response rating (blackgrass [5]): 15
Plant response rating, Blackgrass (blackgrass [5]; [15]): 40
Plant response rating, Blackgrass (blackgrass [5]; [16]): 10
Plant response rating (scale of 0 to 100 where 0 is no effect and 100 is complete control), Wheat (wheat): 5
Wheat plant response rating (wheat): 5
Plant response rating, Wheat (wheat; [15]): 10
Plant response rating, Wheat (wheat; [16]): 5
Plant response rating (scale of 0 to 100 where 0 is no effect and 100 is complete control), Foxtail, Giant (foxtail, giant [6]): 10
Foxtail, Giant plant response rating (foxtail, giant [6]): 15
Plant response rating, Foxtail, Giant (foxtail, giant [6]; [15]): 35
Plant response rating, Foxtail, Giant (foxtail, giant [6]; [16]): 15
Plant response rating (scale of 0 to 100 where 0 is no effect and 100 is complete control), Pigweed (pigweed [7]): 35
Pigweed plant response rating (pigweed [7]): 70
Plant response rating, Pigweed (pigweed [7]; [15]): 85
Plant response rating, Pigweed (pigweed [7]; [16]): 75
Plant response rating (scale of 0 to 100 where 0 is no effect and 100 is complete control), Ragweed (ragweed): 30
Ragweed plant response rating (ragweed): 20
Plant response rating, Ragweed (ragweed; [15]): 60
Plant response rating, Ragweed (ragweed; [16]): 50
Plant response rating (scale of 0 to 100 where 0 is no effect and 100 is complete control), Soybean (soybean): 40
Soybean plant response rating (soybean): 65
Plant response rating, Soybean (soybean; [15]): 85
Plant response rating, Soybean (soybean; [16]): 70
Plant response rating (scale of 0 to 100 where 0 is no effect and 100 is complete control), Barnyardgrass (barnyardgrass): 5
Barnyardgrass plant response rating (barnyardgrass): 5
Plant response rating, Barnyardgrass (barnyardgrass; [15]): 15
Plant response rating, Barnyardgrass (barnyardgrass; [16]): 10

Reference: patent US20150105252A1, “SUBSTITUTED PYRAZOLES AS HERBICIDES” (E I DU PONT DE NEMOURS AND COMPANY, priority 2013, published 2015)
